Test results: US20100104534A1, “HYDRAZIDO-PEPTIDES AS INHIBITORS OF HCV NS3-PROTEASE” (priority 2007, published 2010)

Test system: replicon
Assay: Replicon assay
Assay type: cell-based

Structure (SMILES)	IC50 [nM]
C[C@H](NC(=O)N(CC1CC1)NC(=O)[C@@H]1[C@@H]2[C@H](CN1C(=O)[C@@H](NC(=O)N[C@H](CN1C(=O)C3CCC(C3)C1=O)C(C)(C)C)C(C)(C)C)C2(C)C)c1ccccc1 [Compound 6]	500 to 3000
CCCN(NC(=O)[C@@H]1[C@@H]2[C@H](CN1C(=O)[C@@H](NC(=O)N[C@H](CN1C(=O)C3CCC(C3)C1=O)C(C)(C)C)C(C)(C)C)C2(C)C)C(=O)N[C@@H](C)c1ccccc1 [Compound 5]	≤ 500
CCCN(NC(=O)[C@@H]1[C@@H]2[C@H](CN1C(=O)[C@@H](NC(=O)N[C@H](CN(C)S(C)(=O)=O)C(C)(C)C)C(C)(C)C)C2(C)C)C(=O)N[C@@H](C)c1ccccc1 [Compound 2]	≤ 500
CCCN(NC(=O)[C@@H]1[C@@H]2[C@H](CN1C(=O)[C@@H](NC(=O)N[C@H](CN1C(=O)CC(C)(C)CC1=O)C(C)(C)C)C(C)(C)C)C2(C)C)C(=O)N[C@@H](C)c1ccccc1 [Compound 3]	≤ 500
CCCN(NC(=O)[C@@H]1[C@@H]2[C@H](CN1C(=O)[C@@H](NC(=O)NC1(CS(=O)(=O)C(C)(C)C)CCCCC1)C1(C)CCCCC1)C2(C)C)C(=O)N[C@@H](C)c1ccccc1 [Compound 1]	500 to 3000
